Literature values as cited in US12448600B2, “Extraction of antimethanogenic compounds” (priority 2023, dated 2025).
Read-outs that look alike come from different tables or passages of the source.

How the values were obtained:
[1] = pure form
[2] = 20° C., cell prints mmHg under a kPa head

For `CBr` [Methyl bromide], the Vapor pressure [1, 2] is listed as 1893 mmHg.
In the case of `CI` [Methyl iodide], the Vapor pressure ([1]; 20° C.) is listed as 50 kPa.
In the case of `ClC=C(Cl)Cl` [Trichlorethylene], the Vapor pressure ([1]; 20° C.) is given as 7.8 kPa.
In the case of `ClC(Cl)Cl` [Chloroform], the Vapor pressure [1, 2] is listed as 212 mmHg.
For `ClC(Cl)Br` [Bromodichloromethane], the Vapor pressure ([1]; 20° C.) is listed as 6.6 kPa.
In the case of `BrC(Br)Br` [Bromoform], the Vapor pressure ([1]; 20° C.) is given as 0.67 kPa.
In the case of `IC(I)I` [Iodoform], the Vapor pressure [1, 2] is listed as 0.04 mmHg.
For `BrCBr` [Dibromomethane], the Vapor pressure ([1]; 20° C.) is listed as 4.7 kPa.
In the case of `O=[N+]([O-])OCCCO` [3-NOP, 3-nitrooxypropanol], the “Reduction in CH4 production” value (CH4 production; cows, twice daily dosing, 80 mg per kg dry matter intake, 3 hours post-administration) is listed as 29%, the “Reduction in methane emissions” value (CH4 production; single dose) is listed as under 30% and the “Time the reduction in methane emissions is maintained” value (CH4 production; single dose) is listed as 3 to 4 h.
For `CF` [Methyl fluoride], the Vapor pressure ([1]; at 21° C.) is listed as 3300 at 21 °C kPa.
In the case of `FC(F)F` [Fluoroform], the Vapor pressure ([1]; 20° C.) is given as 4000 kPa.
